Test results from patent publication US20230149337A1, “OPHTHALMIC FORMULATION AND ITS USE” (OY FINNSUSP AB, priority 2020, published 2023).
In brackets after ≈: the same amount, converted by molar mass. Like-named read-outs stand apart in the source and are kept apart here.

Tests used:
[1] = Langmuir trough: surface pressure isotherms and BAM of pure films; type: physicochemical; conditions: pure film under compression
Method: The interactions of the microemulsion formulation SIME02A explained in Example 2 with a tear film lipid layer (TFLL) component were studied in a Langmuir trough model system. A naturally occurring lipid 20 (oleoyloxy)icosanoic acid (20-OAHFA) which represents the O-acyl-ω-hydroxy fatty acids in the TFLL was selected as a model lipid and synthesized as described in Bland et al. Langmuir 2019, 35, 3545-3552. The experiments were performed on a KSV NIMA Large trough equipped with a surface pressure balance with a platinum Wilhelmy plate, a KSV SPOT surface potential meter and KSV NIMA microBAM Brewster angle microscope (BAM), all from Biolin Scientific (Stockholm, Sweden). The Langmuir trough system was enclosed in a plastic hood with an inlet supply of dry and ozone-depleted air (Ozone solutions ODS-3P, Hull, Iow. USA) to prevent oxidation of lipids.
The Langmuir trough was filled with phosphate-buffered saline (PBS) as a subphase maintained at 35±1° C. to emulate the aqueous layer of the tear film. The model lipid 20-OAHFA or pure sacha inchi (SI) seed oil was dissolved in chloroform and spread on the surface of the PBS subphase. Chloroform was allowed to evaporate for 5 min. […] The lipid film was compressed and expanded in the trough with two Delrin barriers at a rate of 13 mm/min while the surface pressure and surface potential were measured. […]

[2] = Solubility of dexamethasone in microemulsion formulations; type: physicochemical; conditions: for solubility: aqueous with cosolvent or surfactant or cyclodextrin, equilibrium from dmso stock, room temperature, 8-9 days, read-out: Solubility of DXM
Method: The solubility of dexamethasone (DXM) in the microemulsion formulations was studied. To formulations containing 0.1%, 0.5%, 1%, or 5% of the sacha inchi seed oil, DXM ([…] stock in dimethyl sulfoxide, DMSO) was added at concentrations of […] in triplicate. […] The test vials were incubated at room temperature with continuous shaking (90 rpm) for 8-9 days until equilibrium. After incubation, the samples were mixed 1:1 with acetonitrile for 10 min and centrifuged (13,000 rpm, 10 min), followed by immediate HPLC analysis of the supernatant for DXM concentration. HPLC analysis was performed with Agilent 1100 series HPLC system and Eclipse XDB-C18 column (1.8 μm, 4.6×50 mm; Agilent) maintained at 60° C. Isocratic elution of the 5-μl sample injected was performed with 65% Eluent A (1% TFA in Milli-Q water) and 35% Eluent B (0.1% TFA in acetonitrile) at flow rate 1 ml/min and UV detection at 240 nm.

Surface pressure of transition to a solid monolayer [1] [mN/m] | Solubility of DXM relative to PBS ([2]; 1% oil concentration in the formulation) [times] | solubility ([2]; microemulsion formulation with 5% sacha inchi seed oil, microemulsion with 5% oil) [µg/mL] | Solubility of DXM relative to PBS ([2]; microemulsion with 5% oil) | Solubility of DXM relative to PBS ([2]; microemulsions with lower oil concentrations) | solubility ([2]; phosphate-buffered saline (PBS), PBS alone) [µg/mL] | Compound
2.5 |  |  |  |  |  | CCCCCCCC/C=C\CCCCCCCC(=O)OCCCCCCCCCCCCCCCCCCCC(=O)O [20-OAHFA, 20 (oleoyloxy)icosanoic acid]
 | 2.5 | ~3700 (≈ 9.43 mM) | about 15 times | at the same level as in PBS | ~250 (≈ 0.637 mM) | C[C@@H]1C[C@H]2[C@@H]3CCC4=CC(=O)C=C[C@]4(C)[C@@]3(F)[C@@H](O)C[C@]2(C)[C@@]1(O)C(=O)CO [DXM, Dexamethasone]
